This note sets out measurements from patent US20100311729A1, “Substituted imidazopyridazines and pyrrolopyrimidines as lipid kinase inhibitors” (priority 2007, published 2010).

Assay type in all cases: biochemical
The target of one experiment is T1, PI3K gamma (Homo sapiens, UniProt P48736).
T1 construct: PI3Kγ BV-950 p110g(D144aa)-C-Term His Tag; His tag (C); made in house; host or cells: construct from the Roger Williams lab (MRC LMB) in pVL1393; baculovirus; Tn5 (Trichoplusia ni) or TiniPro insect cells
Description: PI3 kinase assay (Kinase-Glo luminescence), PI3K gamma. To be noted: Enzymatic Data; read-out: PI3K gamma IC50 [umol]. Put shortly:
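Percent inhibition at eight concentrations (typically 10 to 0.003 […]) fitted to a four-parameter logistic model to give IC50. Reaction initiated with ATP; final ATP 1 μM and phosphatidylinositol 10 μg/mL; ATP consumption read by Kinase-Glo luminescence.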

Another experiment has as its target T2, PI3K alfa (Homo sapiens, UniProt P42336).
T2 construct: for the p110-a subunit (with a deletion of the first 20 amino acids); His tag (C); made in house; host or cells: baculovirus; Tn5 (Trichoplusia ni) or TiniPro insect cells
Nature of the experiment: PI3 kinase assay (Kinase-Glo luminescence), PI3K alfa. To be noted: Enzymatic Data; read-out: PI3K alfa IC50 [umol]. In short, it runs like this: (§1)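 Recombinant PI3K constructs (alfa 10 nM, delta 10 nM, gamma 150 nM) with 1 μM ATP and 10 μg/mL phosphatidylinositol in Tris pH 7.5, MgCl2, NaCl, CHAPS, DTT; 60 min (alfa, delta) or 120 min (gamma) at room temperature. ATP depletion read by Kinase-Glo luminescence; IC50 from 4-parameter logistic fit over 8 concentrations.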
On the technique in general: Kinase-Glo measures the ATP left after a reaction by luminescence.

The next experiment addresses T3, PI3K beta (Homo sapiens, UniProt P42338).
T3 construct: for the full-length p110-b subunit are generated and fused by overlapping PCR; His tag (C); made in house; host or cells: baculovirus; Tn5 (Trichoplusia ni) or TiniPro insect cells
Nature of the experiment: PI3 kinase assay (Kinase-Glo luminescence), PI3K beta. To be noted: Enzymatic Data; read-out: PI3K beta IC50 [umol]. Put shortly: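 PI3Kβ (25 nM, BV-949) with 10 μg/mL phosphatidylinositol in Tris pH 7.5/MgCl2/NaCl/CHAPS/DTT buffer; reaction started with 1 μM ATP, 60 min at room temperature. ATP depletion read by Kinase-Glo luminescence; 8-point dilutions, IC50 by four-parameter logistic fit.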

Another experiment addresses T4, PI3K delta (Homo sapiens, UniProt O00329).
T4 construct: for the full-length p110-d subunit are generated and fused by overlapping PCR; His tag (C); made in house; host or cells: baculovirus; Tn5 (Trichoplusia ni) or TiniPro insect cells
Nature of the experiment: PI3 kinase assay (Kinase-Glo luminescence), PI3K delta. The note with it: Enzymatic Data; read-out: PI3K delta IC50 [umol]. Put shortly:
as §1

Molecules are shown by their SMILES.

T1 sequence (P48736 144-1102 limits assumed): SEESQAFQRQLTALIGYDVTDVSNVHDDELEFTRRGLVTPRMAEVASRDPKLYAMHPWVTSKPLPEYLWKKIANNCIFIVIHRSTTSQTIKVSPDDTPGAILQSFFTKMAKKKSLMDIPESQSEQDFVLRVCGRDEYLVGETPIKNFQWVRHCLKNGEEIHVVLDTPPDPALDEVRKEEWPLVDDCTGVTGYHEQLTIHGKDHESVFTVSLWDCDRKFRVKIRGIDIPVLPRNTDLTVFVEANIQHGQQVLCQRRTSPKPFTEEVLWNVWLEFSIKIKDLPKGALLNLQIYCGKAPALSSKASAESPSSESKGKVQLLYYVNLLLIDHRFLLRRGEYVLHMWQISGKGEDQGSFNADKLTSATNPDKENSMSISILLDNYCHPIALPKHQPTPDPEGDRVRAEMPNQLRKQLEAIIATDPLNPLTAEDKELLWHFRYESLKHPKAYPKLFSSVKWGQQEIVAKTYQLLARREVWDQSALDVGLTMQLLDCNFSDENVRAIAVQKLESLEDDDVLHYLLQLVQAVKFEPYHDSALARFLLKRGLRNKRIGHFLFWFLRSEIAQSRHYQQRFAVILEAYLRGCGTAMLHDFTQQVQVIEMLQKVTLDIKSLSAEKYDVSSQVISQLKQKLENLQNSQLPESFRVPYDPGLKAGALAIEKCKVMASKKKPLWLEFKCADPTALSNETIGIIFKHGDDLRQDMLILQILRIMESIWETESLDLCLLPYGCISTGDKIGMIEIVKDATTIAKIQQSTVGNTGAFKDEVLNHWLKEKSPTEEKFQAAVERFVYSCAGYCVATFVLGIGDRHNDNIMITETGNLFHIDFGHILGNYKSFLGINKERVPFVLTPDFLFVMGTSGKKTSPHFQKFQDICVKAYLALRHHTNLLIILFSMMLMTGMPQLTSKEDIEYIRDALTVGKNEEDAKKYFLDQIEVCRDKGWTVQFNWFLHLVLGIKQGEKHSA
T2 sequence (P42336 with tags, fused parts or gaps limits assumed): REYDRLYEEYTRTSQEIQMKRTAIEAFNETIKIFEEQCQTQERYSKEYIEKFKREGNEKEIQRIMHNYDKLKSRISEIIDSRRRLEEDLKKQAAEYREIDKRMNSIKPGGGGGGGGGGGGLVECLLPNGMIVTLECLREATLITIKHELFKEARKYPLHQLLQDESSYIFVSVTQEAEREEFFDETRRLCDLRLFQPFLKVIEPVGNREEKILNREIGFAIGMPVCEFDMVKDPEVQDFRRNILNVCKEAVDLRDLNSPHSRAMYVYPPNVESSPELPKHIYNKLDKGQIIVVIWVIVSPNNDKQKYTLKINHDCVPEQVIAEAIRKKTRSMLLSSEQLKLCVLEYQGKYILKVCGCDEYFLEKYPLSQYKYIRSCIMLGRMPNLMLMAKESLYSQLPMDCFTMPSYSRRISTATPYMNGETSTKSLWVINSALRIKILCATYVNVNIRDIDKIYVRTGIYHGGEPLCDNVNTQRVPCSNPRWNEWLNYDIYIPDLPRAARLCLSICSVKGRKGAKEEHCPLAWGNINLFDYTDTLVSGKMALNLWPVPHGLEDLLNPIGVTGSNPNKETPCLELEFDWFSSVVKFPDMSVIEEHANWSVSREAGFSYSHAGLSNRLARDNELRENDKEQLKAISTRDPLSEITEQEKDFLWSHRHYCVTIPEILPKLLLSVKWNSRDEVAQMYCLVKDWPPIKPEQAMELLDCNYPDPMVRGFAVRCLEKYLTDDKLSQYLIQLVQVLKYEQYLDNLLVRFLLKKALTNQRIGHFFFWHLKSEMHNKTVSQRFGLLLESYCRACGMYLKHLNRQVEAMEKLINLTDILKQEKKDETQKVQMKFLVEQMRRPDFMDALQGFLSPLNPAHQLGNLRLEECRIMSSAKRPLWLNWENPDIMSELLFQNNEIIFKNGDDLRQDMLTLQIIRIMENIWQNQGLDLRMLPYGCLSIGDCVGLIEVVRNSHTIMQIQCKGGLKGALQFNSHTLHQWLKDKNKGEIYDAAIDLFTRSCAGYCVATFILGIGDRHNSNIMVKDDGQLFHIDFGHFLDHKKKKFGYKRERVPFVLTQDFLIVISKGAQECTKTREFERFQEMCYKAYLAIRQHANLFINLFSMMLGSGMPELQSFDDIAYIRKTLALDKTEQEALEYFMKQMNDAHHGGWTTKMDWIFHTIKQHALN
T3 sequence (P42338 with tags, fused parts or gaps limits assumed): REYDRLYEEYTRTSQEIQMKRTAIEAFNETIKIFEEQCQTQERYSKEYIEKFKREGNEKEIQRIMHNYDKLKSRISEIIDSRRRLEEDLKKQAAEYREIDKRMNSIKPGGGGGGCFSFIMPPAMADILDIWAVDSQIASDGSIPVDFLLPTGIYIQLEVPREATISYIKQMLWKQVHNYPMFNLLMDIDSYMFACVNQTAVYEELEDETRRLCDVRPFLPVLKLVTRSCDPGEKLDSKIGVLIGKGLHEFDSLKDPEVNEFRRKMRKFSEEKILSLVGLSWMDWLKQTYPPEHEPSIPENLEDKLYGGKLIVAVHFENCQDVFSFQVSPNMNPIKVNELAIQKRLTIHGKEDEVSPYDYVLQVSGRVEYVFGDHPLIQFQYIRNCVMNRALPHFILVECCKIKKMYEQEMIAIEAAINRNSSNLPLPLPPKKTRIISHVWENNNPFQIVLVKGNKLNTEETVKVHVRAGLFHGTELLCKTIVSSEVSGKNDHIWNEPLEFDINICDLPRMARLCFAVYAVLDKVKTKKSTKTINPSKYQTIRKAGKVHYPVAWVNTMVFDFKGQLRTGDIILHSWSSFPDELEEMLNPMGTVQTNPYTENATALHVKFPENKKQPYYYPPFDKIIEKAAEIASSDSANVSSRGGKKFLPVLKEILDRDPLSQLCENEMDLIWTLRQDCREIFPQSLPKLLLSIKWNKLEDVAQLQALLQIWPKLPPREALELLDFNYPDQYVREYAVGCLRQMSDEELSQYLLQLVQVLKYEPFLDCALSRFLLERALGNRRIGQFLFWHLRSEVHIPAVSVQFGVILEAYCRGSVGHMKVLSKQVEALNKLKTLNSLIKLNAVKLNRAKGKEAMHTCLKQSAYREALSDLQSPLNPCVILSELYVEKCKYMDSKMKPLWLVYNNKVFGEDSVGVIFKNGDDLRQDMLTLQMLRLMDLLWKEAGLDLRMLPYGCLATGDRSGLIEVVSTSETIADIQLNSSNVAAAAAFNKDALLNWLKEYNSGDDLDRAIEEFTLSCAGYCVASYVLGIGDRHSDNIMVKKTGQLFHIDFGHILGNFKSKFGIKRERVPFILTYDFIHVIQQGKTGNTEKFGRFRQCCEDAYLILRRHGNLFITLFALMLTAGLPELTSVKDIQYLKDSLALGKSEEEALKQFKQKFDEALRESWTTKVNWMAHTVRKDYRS
T4 sequence (O00329 with tags, fused parts or gaps limits assumed): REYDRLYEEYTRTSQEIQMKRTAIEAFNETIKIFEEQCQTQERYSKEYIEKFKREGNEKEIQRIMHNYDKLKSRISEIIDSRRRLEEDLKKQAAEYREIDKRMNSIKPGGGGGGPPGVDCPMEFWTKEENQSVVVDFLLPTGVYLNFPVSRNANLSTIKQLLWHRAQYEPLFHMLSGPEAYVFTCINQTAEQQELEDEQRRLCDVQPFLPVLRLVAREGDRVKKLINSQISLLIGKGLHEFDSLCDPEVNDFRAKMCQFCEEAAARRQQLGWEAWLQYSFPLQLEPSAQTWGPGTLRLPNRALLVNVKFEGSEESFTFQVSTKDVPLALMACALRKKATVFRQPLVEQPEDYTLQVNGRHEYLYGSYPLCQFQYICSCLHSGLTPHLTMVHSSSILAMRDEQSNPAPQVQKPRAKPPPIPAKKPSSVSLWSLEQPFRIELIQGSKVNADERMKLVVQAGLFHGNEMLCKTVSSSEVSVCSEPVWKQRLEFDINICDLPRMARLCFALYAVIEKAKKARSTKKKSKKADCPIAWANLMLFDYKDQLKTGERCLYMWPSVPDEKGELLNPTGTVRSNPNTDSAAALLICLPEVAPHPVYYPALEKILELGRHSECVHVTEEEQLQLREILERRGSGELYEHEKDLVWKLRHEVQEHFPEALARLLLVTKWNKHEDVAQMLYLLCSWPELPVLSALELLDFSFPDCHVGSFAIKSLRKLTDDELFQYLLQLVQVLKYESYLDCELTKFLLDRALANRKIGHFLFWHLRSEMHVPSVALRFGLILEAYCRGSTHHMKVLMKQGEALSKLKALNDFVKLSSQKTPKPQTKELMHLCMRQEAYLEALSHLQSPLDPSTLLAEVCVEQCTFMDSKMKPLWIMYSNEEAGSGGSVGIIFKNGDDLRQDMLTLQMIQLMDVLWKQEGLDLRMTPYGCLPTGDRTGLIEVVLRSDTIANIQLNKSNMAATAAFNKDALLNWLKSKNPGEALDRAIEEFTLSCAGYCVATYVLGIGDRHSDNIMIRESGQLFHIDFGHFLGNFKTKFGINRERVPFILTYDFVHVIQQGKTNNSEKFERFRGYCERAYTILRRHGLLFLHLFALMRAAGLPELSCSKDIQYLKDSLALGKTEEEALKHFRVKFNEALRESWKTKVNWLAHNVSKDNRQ

Turning to `Nc1ncc(-c2ccc3ncc(-c4ccc(C(=O)N5CCN(CCN6CCOCC6)CC5)cc4)n3n2)cc1C(F)(F)F` [Example 128, {4-[6-(6-Amino-5-trifluoro-methyl-pyridin-3-yl)-imidazo [1,2-b]pyridazin-3-yl]-phenyl}-[4-(2-morpholin-4-yl-ethyl)-piperazin-1-yl]-methanone], the IC50 at PI3K gamma came to 0.938 µM; on PI3K alfa, 0.012 µM; at PI3K beta, 0.518 µM; on PI3K delta, 0.038 µM.

With `Nc1ccc(-c2cnc3ccc(-c4ccc(OCCCNC(=O)C5CC5)cc4)nn23)cn1` [Example 129, Cyclo-propane-carboxylic acid (3-{4-[3-(6-amino-pyridin-3-yl)-imidazo [1,2-b]pyridazin-6-yl]-phenoxy}-propyl)-amide], the IC50 at PI3K gamma amounted to 2.02 µM; on PI3K alfa, 0.223 µM; on PI3K beta it was 4.15 µM; at PI3K delta, 0.676 µM.

`O=C(NCCCOc1ccc(-c2ccc3ncc(-c4cncc(C(F)(F)F)c4)n3n2)cc1)C1CC1` [Example 130, Cyclo-propane-carboxylic acid (3-{4-[3-(5-trifluoro-methyl-pyridin-3-yl)-imidazo [1,2-b]pyridazin-6-yl]-phenoxy}-propyl)-amide]: the IC50 is 1.3 µM at PI3K gamma, 0.347 µM on PI3K alfa, more than 9.1 µM on PI3K beta and 0.576 µM on PI3K delta.

`Nc1ncc(-c2ccc3ncc(-c4ccc5c(cnn5CCN5CCOCC5)c4)n3n2)cc1C(F)(F)F` [Example 131, 5-{3-[1-(2-Morpholin-4-yl-ethyl)-1H-indazol-5-yl]-imidazo [1,2-b]pyridazin-6-yl}-3-trifluoro-methyl-pyridin-2-ylamine]: the IC50 on PI3K gamma is 0.703 µM; on PI3K alfa it was 0.026 µM; on PI3K beta, 0.112 µM; on PI3K delta it was 0.015 µM.

In the case of `CN(C)CCN1CCN(C(=O)c2ccc(-c3cnc4ccc(-c5cnc(N)c(C(F)(F)F)c5)nn34)cc2)CC1` [Example 132, {4-[6-(6-Amino-5-trifluoro-methyl-pyridin-3-yl)-imidazo [1,2-b]pyridazin-3-yl]-phenyl}-[4-(2-dimethyl-amino-ethyl)-piperazin-1-yl]-methanone], the IC50 at PI3K gamma turned out to be 2.02 µM; on PI3K alfa, 0.026 µM; at PI3K beta, 1.26 µM; at PI3K delta it was 0.052 µM.

For `COc1cc(-c2cnc3ccc(-c4cnc(N)c(C(F)(F)F)c4)nn23)ccc1C(=O)N1CCN(CCc2ccccn2)CC1` [Example 133, {4-[6-(6-Amino-5-trifluoro-methyl-pyridin-3-yl)-imidazo [1,2-b]pyridazin-3-yl]-2-methoxy-phenyl)-[4-(2-pyridin-2-yl-ethyl)-piperazin-1-yl]-methanone], the IC50 at PI3K gamma was 1.28 µM; on PI3K alfa, 0.038 µM; at PI3K beta, 0.302 µM; on PI3K delta, 0.033 µM.

For the compound `Nc1ncc(-c2ccc3ncc(-c4ccc(S(=O)(=O)NCCCN5CCOCC5)cc4)n3n2)cc1C(F)(F)F` [Example 134, 4-[6-(6-Amino-5-trifluoro-methyl-pyridin-3-yl)-imidazo [1,2-b]pyridazin-3-yl]-N-(3-morpholin-4-yl-propyl)-benzene-sulfonamide], the IC50 at PI3K gamma was more than 9.1 µM; on PI3K alfa, 0.071 µM; on PI3K beta it was 0.443 µM; on PI3K delta, 0.079 µM.

For `Nc1ncc(-c2ccc3ncc(-c4ccc(C(=O)N5CCN(CCc6ccccn6)CC5)cc4)n3n2)cc1C(F)(F)F` [Example 135], the IC50 at PI3K gamma was 2.01 µM; on PI3K alfa, 0.046 µM; on PI3K beta, 0.587 µM; on PI3K delta, 0.059 µM.

Take `Nc1ncc(-c2ccc3ncc(-c4ccc(C(=O)N5CCN(Cc6ccncc6)CC5)cc4)n3n2)cc1C(F)(F)F` [Example 136, {4-[6-(6-Amino-5-trifluoro-methyl-pyridin-3-yl)-imidazo [1,2-b]pyridazin-3-yl]-phenyl}-(4-pyridin-4-ylmethyl-piperazin-1-yl)-methanone]: the IC50 on PI3K gamma was 1.53 µM; at PI3K alfa it was 0.036 µM; on PI3K beta, 1.2 µM; on PI3K delta it was 0.052 µM.

Regarding `O=C(NCCCOc1ccc(-c2ccc3ncc(-c4cnc5[nH]ccc5c4)n3n2)cc1)C1CC1` [Example 137, Cyclo-propane-carboxylic acid (3-{4-[3-(1H-pyrrolo[2,3-b]pyridin-5-yl)-imidazo [1,2-b]pyridazin-6-yl]-phenoxy}-propyl)-amide], the IC50 is more than 9.1 µM on PI3K gamma, 0.138 µM on PI3K alfa, more than 9.1 µM at PI3K beta and 0.28 µM on PI3K delta.

For the compound `Nc1ncc(-c2ccc3ncc(-c4ccc5c(cnn5CCCN5CCOCC5)c4)n3n2)cc1C(F)(F)F` [Example 140, 5-{3-[1-(3-Morpholin-4-yl-propyl)-1H-indazol-5-yl]-imidazo [1,2-b]pyridazin-6-yl}-3-trifluoro-methyl-pyridin-2-ylamine], the IC50 at PI3K gamma came to 0.712 µM; on PI3K alfa it was 0.037 µM; on PI3K beta it was 0.135 µM; at PI3K delta, 0.027 µM.

Turning to `NCCCOc1ccc(-c2cnc3ccc(-c4cnc(N)c(C(F)(F)F)c4)nn23)cc1` [Example 141, 5-{3-[4-(3-Amino-propoxy)-phenyl]-imidazo [1,2-b]pyridazin-6-yl}-3-trifluoro-methyl-pyridin-2-ylamine], the IC50 at PI3K gamma worked out at 7.25 µM; on PI3K alfa it was 0.151 µM; at PI3K beta, 0.134 µM; on PI3K delta, 0.201 µM.

For the compound `Nc1ncc(-c2ccc3ncc(-c4ccc(OCCCNC(=O)C5CC5)cc4)n3n2)cc1C(F)(F)F` [Example 142, Cyclo-propane-carboxylic acid (3-{4-[6-(6-amino-5-trifluoro-methyl-pyridin-3-yl)-imidazo [1,2-b]pyridazin-3-yl]-phenoxy}-propyl)-amide], the IC50 at PI3K gamma is more than 9.1 µM; on PI3K alfa it was 0.045 µM; on PI3K beta, 3.17 µM; on PI3K delta it was 0.319 µM.

Turning to `Nc1ncc(-c2ccc3ncc(-c4cnc5c(c4)ncn5CCN4CCOCC4)n3n2)cc1C(F)(F)F` [Example 143, 5-{3-[3-(2-Morpholin-4-yl-ethyl)-3H-imidazo [4,5-b]pyridin-6-yl]-imidazo [1,2-b]pyridazin-6-yl}-3-trifluoro-methyl-pyridin-2-ylamine], the IC50 on PI3K gamma came to 1.18 µM; on PI3K alfa, 0.044 µM; at PI3K beta, 0.072 µM; at PI3K delta, 0.028 µM.

With `Nc1ncc(-c2ccc3ncc(-c4ccc(C(=O)N5CCN(CC(=O)N6CCOCC6)CC5)cc4)n3n2)cc1C(F)(F)F` [Example 144, 2-(4-{4-[6-(6-Amino-5-trifluoro-methyl-pyridin-3-yl)-imidazo [1,2-b]pyridazin-3-yl]-benzoyl}-piperazin-1-yl)-1-morpholin-4-yl-ethanone], the IC50 amounted to 5.9 µM on PI3K gamma, 0.175 µM at PI3K alfa, 0.533 µM at PI3K beta and 0.266 µM on PI3K delta.

As to `Nc1ncc(-c2ccc3ncc(-c4ccc(C(=O)N5CCN(CCO)CC5)cc4)n3n2)cc1C(F)(F)F` [Example 145], the IC50 at PI3K gamma is 6.92 µM; at PI3K alfa it was 0.097 µM; at PI3K beta, 0.508 µM; at PI3K delta, 0.151 µM.

On to `Nc1ncc(-c2cnc3ccc(-c4ccc(OCC5(NC(=O)C6CC6)COC5)cc4)nn23)cc1C(F)(F)F` [Example 146, Cyclopropanecarboxylic acid (3-{4-[3-(6-amino-5-trifluoromethyl-pyridin-3-yl)-imidazo[1,2-b]pyridazin-6-yl]-phenoxymethyl}-oxetan-3-yl)-amide], for which the IC50 on PI3K gamma is 1.73 µM; on PI3K alfa, 0.054 µM; at PI3K beta, 2.54 µM; on PI3K delta it was 0.28 µM.

On to `CCN(CC)CCn1cnc2cc(-c3cnc4ccc(-c5cnc(N)c(C(F)(F)F)c5)nn34)cnc21` [Example 149, 5-{3-[3-(2-Diethyl-amino-ethyl)-3H-imidazo [4,5-b]pyridin-6-yl]-imidazo [1,2-b]pyridazin-6-yl}-3-trifluoro-methyl-pyridin-2-ylamine], for which the IC50 on PI3K gamma is 0.404 µM; on PI3K alfa, 0.019 µM; on PI3K beta, 0.04 µM; at PI3K delta, 0.014 µM.

For the compound `Nc1ncc(-c2ccc3ncc(-c4ccc(C(=O)NCCn5ccnc5)cc4)n3n2)cc1C(F)(F)F` [Example 150, 4-[6-(6-Amino-5-trifluoro-methyl-pyridin-3-yl)-imidazo [1,2-b]pyridazin-3-yl]-N-{2-imidazol-1-yl-ethyl)-benzamide], the IC50 was more than 9.1 µM on PI3K gamma, 0.013 µM on PI3K alfa, 0.132 µM on PI3K beta and 0.031 µM on PI3K delta.
